Source: ChEMBL document CHEMBL4418308, “cGAS ANTAGONIST COMPOUNDS” (2017)
pIC50: −log10 of the molar value.

How the values were obtained:
Cyclic GMP-AMP synthase [1] = molecular target: T1, Cyclic GMP-AMP synthase (Homo sapiens, UniProt Q8N884); assay: Inhibition of recombinant His6-SUMO tagged human CGAS expressed in Escherichia coli BL21/pLys cells incubated for 20 mins by Kinase Glo chemiluminescence assay
Cyclic GMP-AMP synthase [2] = molecular target: T1, Cyclic GMP-AMP synthase; assay: Inhibition of CGAS in human THP1 cells transfected with interferon stimulatory DNA and measured after 16 hrs by Gaussia luciferase reporter gene assay; type: cell-based
Cyclic GMP-AMP synthase [3] = molecular target: T1, Cyclic GMP-AMP synthase; assay: Inhibition of CGAS in human THP1 cells transfected with mock Sendai virus and measured after 16 hrs by Gaussia luciferase reporter gene assay; type: cell-based

T1 sequence (Q8N884 whole entry): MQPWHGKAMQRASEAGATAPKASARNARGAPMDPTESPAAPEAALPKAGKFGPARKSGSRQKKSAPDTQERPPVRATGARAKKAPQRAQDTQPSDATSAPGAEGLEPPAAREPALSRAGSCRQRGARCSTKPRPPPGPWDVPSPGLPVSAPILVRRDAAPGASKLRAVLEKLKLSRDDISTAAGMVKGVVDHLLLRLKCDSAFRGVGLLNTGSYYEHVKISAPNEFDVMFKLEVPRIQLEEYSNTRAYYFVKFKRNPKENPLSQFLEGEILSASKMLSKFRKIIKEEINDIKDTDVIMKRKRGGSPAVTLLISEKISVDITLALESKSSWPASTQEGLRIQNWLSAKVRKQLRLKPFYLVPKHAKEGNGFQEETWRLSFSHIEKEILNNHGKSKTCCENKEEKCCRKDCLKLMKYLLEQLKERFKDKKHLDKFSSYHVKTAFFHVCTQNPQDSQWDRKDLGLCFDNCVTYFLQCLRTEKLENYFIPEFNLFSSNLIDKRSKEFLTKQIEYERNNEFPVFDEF

Compound	pIC50 (Cyclic GMP-AMP synthase [1])	pIC50 (Cyclic GMP-AMP synthase [2])	pIC50 (Cyclic GMP-AMP synthase [3])
CN1C(=O)S/C(=C\c2cc(OCc3cnc(NCc4cccnc4)nc3)c(O)cc2Br)C1=O	≥ 6.30	5.00 to 5.60	≤ 5.00
CN1C(=O)S/C(=C\c2cc(OCc3cnc(NCc4ccccn4)nc3)c(O)cc2Br)C1=O	≥ 6.30	5.00 to 5.60	≤ 5.00
CN1C(=O)S/C(=C\c2cc(OCc3ccnc4[nH]cnc34)c(O)cc2Br)C1=O	≥ 6.30	≥ 5.60	≤ 5.00
CCC(Oc1cc(/C=C2\SC(=O)N(C)C2=O)c(Br)c(F)c1O)c1cnc(N)nc1 (configuration not stated)	≥ 6.30	5.00 to 5.60	≤ 5.00
CN1C(=O)S/C(=C\c2cc(OCc3cnc(N)nc3)c(Oc3cnc(N)s3)cc2Br)C1=O	5.00 to 6.30	5.00 to 5.60	≤ 5.00
CN1C(=O)S/C(=C\c2cc(OCc3cnc4ccccc4c3)c(O)cc2Br)C1=O	≤ 5.00	5.00 to 5.60	≤ 5.00
CC(Oc1cc(/C=C2\Sc3ncccc3C2=O)c(Br)cc1O)c1cnc(N)nc1 (configuration not stated)	≥ 6.30	≥ 5.60	≤ 5.00
O=C1/C(=C/c2cc(OC(F)(F)F)c(O)cc2Br)Sc2ncccc21	5.00 to 6.30	5.00 to 5.60	≤ 5.00
CN1C(=O)S/C(=C\c2cc(OCC(=O)c3cnc(N)nc3)c(O)c(F)c2Br)C1=O	5.00 to 6.30	5.00 to 5.60	–
CN1C(=O)S/C(=C\c2cc(OCc3ncc(N)cn3)c(O)cc2Br)C1=O	≤ 5.00	5.00 to 5.60	≤ 5.00
C#CCOc1cc(/C=C2\SC(=O)N(C)C2=O)c(Br)cc1O	5.00 to 6.30	5.00 to 5.60	–
CC(C)C(=O)N1CCC(COc2cc(/C=C3\SC(=O)N(C)C3=O)c(Br)cc2O)CC1	≤ 5.00	5.00 to 5.60	≤ 5.00
CN1C(=O)S/C(=C\c2cc(OCc3cnc(NCCO)nc3)c(O)c(F)c2Br)C1=O	≥ 6.30	≥ 5.60	≤ 5.00
O=C1/C(=C/c2cc(OCc3cnc(NCCO)nc3)c(O)cc2Br)Sc2ncccc21	≥ 6.30	≥ 5.60	≤ 5.00
CN1C(=O)S/C(=C\c2cc(OCc3cnc(NN)nc3)c(O)cc2Br)C1=O	≥ 6.30	≥ 5.60	≤ 5.00
[2H]C([2H])(Oc1cc(/C=C2\SC(=O)N(C)C2=O)c(Br)cc1O)c1cnc(N)nc1	≥ 6.30	≥ 5.60	≤ 5.00
CC(Oc1cc(/C=c2\sc3nccn3c2=O)c(Br)c(F)c1O)c1cnc(N)nc1 (configuration not stated)	5.00 to 6.30	≤ 5.00	–
COc1cc(/C=C2\Sc3ncccc3C2=O)c(Br)c(F)c1O	≥ 6.30	5.00 to 5.60	≤ 5.00
CN1C(=O)S/C(=C\c2cc(OCc3cn[nH]c3)c(O)cc2Br)C1=O	≥ 6.30	≥ 5.60	≤ 5.00
CN1C(=O)S/C(=C\c2cc(OCCc3cnc(N)nc3)c(O)cc2Br)C1=O	≥ 6.30	≥ 5.60	–
CC(Oc1cc(/C=C2\Sc3ncccc3C2=O)c(Br)cc1O)c1cnc(NCCO)nc1 (configuration not stated)	≥ 6.30	5.00 to 5.60	–
CC(Oc1cc(/C=C2\Sc3ncc(F)cc3C2=O)c(Br)c(F)c1O)c1cnc(N)nc1 (configuration not stated)	≥ 6.30	5.00 to 5.60	–
Cc1nc(N)ncc1COc1cc(/C=C2\SC(=O)N(C)C2=O)c(Br)cc1O	≥ 6.30	≥ 5.60	≤ 5.00
COc1cc(/C=C2\SC(=O)N(C)C2=O)c(Br)c(F)c1O	≥ 6.30	5.00 to 5.60	≤ 5.00
O=C1/C(=C/c2cc(CC(F)(F)F)c(O)cc2Br)Sc2ncccc21	≥ 6.30	5.00 to 5.60	≤ 5.00
Cc1ncc(COc2cc(/C=C3\SC(=O)C(C)C3=O)c(Br)c(F)c2O)c(N)n1 (configuration not stated)	≥ 6.30	5.00 to 5.60	–
CN1C(=O)S/C(=C\c2cc(OCc3cnc(Cl)nc3N)c(O)c(F)c2Br)C1=O	≥ 6.30	5.00 to 5.60	–

Compound	pIC50 (Cyclic GMP-AMP synthase [1])	pIC50 (Cyclic GMP-AMP synthase [2])	pIC50 (Cyclic GMP-AMP synthase [3])
CN1C(=O)S/C(=C\c2cc(O/C=C/c3cnc(N)nc3)c(O)c(F)c2Br)C1=O	≥ 6.30	≥ 5.60	≤ 5.00
CN1C(=O)S/C(=C\c2cc(OCc3cnc(Cl)nc3)c(O)c(F)c2Br)C1=O	≤ 5.00	5.00 to 5.60	–
Cc1nc(N)ncc1COc1cc(/C=C2\SC(=O)N(C)C2=O)c(Br)c(F)c1O	≥ 6.30	≥ 5.60	≤ 5.00
Cc1ncc(COc2cc(/C=C3\Sc4ncccc4C3=O)c(Br)c(F)c2O)cn1	≥ 6.30	≥ 5.60	≤ 5.00
CC(Oc1cc(/C=C2\SC(=O)N(C)C2=O)c(Br)c(F)c1O)C(O)c1cnc(N)nc1 (configuration not stated)	≥ 6.30	≤ 5.00	≤ 5.00
O=C1/C(=C/c2cc(OCc3cnc(Cl)nc3)c(O)cc2Br)Sc2ncccc21	≥ 6.30	5.00 to 5.60	–
Nc1ncc(COc2cc(/C=C3\Sc4ncccc4C3=O)c(Br)cc2O)c(C2CC2)n1	≥ 6.30	5.00 to 5.60	–
Cc1ncc(COc2cc(/C=C3\Sc4ncccc4C3=O)c(Br)cc2O)cn1	≥ 6.30	5.00 to 5.60	–
CN1C(=O)S/C(=C\c2cc3c(Cc4cnc(N)nc4)c[nH]c3c(F)c2Br)C1=O	≥ 6.30	≤ 5.00	≤ 5.00
CN1C(=O)S/C(=C\c2cc(OCc3cnc([S+](C)[O-])nc3N)c(O)c(F)c2Br)C1=O (configuration not stated)	≥ 6.30	≤ 5.00	–
CN1C(=O)S/C(=C\c2cc(OCc3ccncc3)c(O)cc2Br)C1=O	5.00 to 6.30	≥ 5.60	–
CN1C(=O)S/C(=C\c2cc(OCc3cccnc3)c(O)c(F)c2Br)C1=O	≥ 6.30	5.00 to 5.60	–
COc1cc(/C=C2\SC(=S)N(C)C2=O)c(Br)cc1O	≥ 6.30	5.00 to 5.60	–
COc1cc(/C=C2\SC(=O)N(C)C2=O)c(Br)cc1NS(=O)(=O)c1csc(N)n1	5.00 to 6.30	≥ 5.60	–
COc1cc(/C=c2\sc3nccn3c2=O)c(Br)cc1O	≥ 6.30	5.00 to 5.60	–
Nc1ncc(COc2cc(/C=c3\sc4nccn4c3=O)c(Br)cc2O)cn1	5.00 to 6.30	≥ 5.60	–
CN1C(=O)S/C(=C\c2cc(OCc3cccnc3)c(O)cc2Br)C1=O	≥ 6.30	5.00 to 5.60	–
CC(Oc1cc(/C=C2\Sc3ncccc3C2=O)c(Br)c(F)c1O)c1cnc(N)nc1 (configuration not stated)	≥ 6.30	5.00 to 5.60	–
CCOc1cc(/C=C2\Sc3ncccc3C2=O)c(Br)cc1O	≥ 6.30	5.00 to 5.60	–
COc1cc(/C=C2\SC(=O)N(C)C2=O)c(Br)cc1NS(=O)(=O)c1ccccn1	≤ 5.00	5.00 to 5.60	–
CN1C(=O)S/C(=C\c2cc(OCc3cnc(NCc4cccnc4)nc3)c(O)c(F)c2Br)C1=O	5.00 to 6.30	5.00 to 5.60	–
Cc1nc(N)ncc1COc1cc(/C=C2\Sc3ncccc3C2=O)c(Br)cc1O	≥ 6.30	≥ 5.60	–
CN1C(=O)S/C(=C\c2cc(O)c(O)cc2Br)C1=O	≤ 5.00	5.00 to 5.60	–
COc1cc(/C=C2\Sc3ncccc3C2=O)c(Br)cc1O	≥ 6.30	5.00 to 5.60	–
CN1C(=O)S/C(=C\c2cc(OCc3cncnc3)c(O)c(F)c2Br)C1=O	≥ 6.30	5.00 to 5.60	–
CC(Oc1cc(/C=C2\SC(=O)N(C)C2=O)c(Br)c(F)c1O)c1cnc(N)nc1 (configuration not stated)	≥ 6.30	≥ 5.60	–
CN1C(=O)S/C(=C\c2cc(OCc3cncnc3N)c(O)c(F)c2Br)C1=O	≥ 6.30	≤ 5.00	–
